These results are taken from patent US20180318287A1, “Imidazo[4,5-c]quinolin-2-one Compounds and Their Use in Treating Cancer” (ASTRAZENECA AB, priority 2015, published 2018).

Assay type in all cases: cell-based
One assay addresses T1, ATM kinase (Homo sapiens, UniProt Q13315).
T1 construct: endogenous in cells; host or cells: HT29 cells (ECACC #85061109)
Nature of the assay: Assay a): ATM cellular potency (pATM Ser1981 in irradiated HT29 cells). As for the experimental part:
Most ATM molecules in the cell are rapidly phosphorylated on this site after doses of radiation as low as 0.5 Gy, and binding of a phosphospecific antibody is detectable after the introduction of only a few DNA double-strand breaks in the cell.
The rationale of the p ATM assay is to identify inhibitors of ATM in cells. HT29 cells are incubated with test compounds for 1 hr prior to X-ray-irradiation. 1 h later the cells are fixed and stained for p ATM (Ser1981). The fluorescence is read on the arrayscan imaging platform.
The following morning compounds of Formula (I) in 100% DMSO were added to assay plates by acoustic dispensing. After 1 h incubation at 37° C. and 5% CO2, plates (up to 6 at a time) were irradiated using the X-RAD 320 instrument (PXi) with equivalent to ˜600cGy. Plates were returned to the incubator for a further 1 h. […] Then 20 μl of 0.1% Triton X100 in PBS was added and incubated for 20 minutes at r.t., to permeabalise cells. Then the plates were washed once with […] PBS, using a Biotek EL405 plate washer.
After 1 h incubation at r.t., the plates were washed three times with 50 μl/well PBS, using a Biotek EL405 plate washer, and plates were sealed and kept in PBS at 4° C. until read. Plates were read using an ArrayScan VTI instrument, using an XF53 filter with 10× objective.

The target of another assay is T2, ATR kinase (Homo sapiens, UniProt Q13535).
T2 construct: endogenous in cells; host or cells: HT29 cells (ECACC #85061109)
T2 sequence (Q13535 whole entry): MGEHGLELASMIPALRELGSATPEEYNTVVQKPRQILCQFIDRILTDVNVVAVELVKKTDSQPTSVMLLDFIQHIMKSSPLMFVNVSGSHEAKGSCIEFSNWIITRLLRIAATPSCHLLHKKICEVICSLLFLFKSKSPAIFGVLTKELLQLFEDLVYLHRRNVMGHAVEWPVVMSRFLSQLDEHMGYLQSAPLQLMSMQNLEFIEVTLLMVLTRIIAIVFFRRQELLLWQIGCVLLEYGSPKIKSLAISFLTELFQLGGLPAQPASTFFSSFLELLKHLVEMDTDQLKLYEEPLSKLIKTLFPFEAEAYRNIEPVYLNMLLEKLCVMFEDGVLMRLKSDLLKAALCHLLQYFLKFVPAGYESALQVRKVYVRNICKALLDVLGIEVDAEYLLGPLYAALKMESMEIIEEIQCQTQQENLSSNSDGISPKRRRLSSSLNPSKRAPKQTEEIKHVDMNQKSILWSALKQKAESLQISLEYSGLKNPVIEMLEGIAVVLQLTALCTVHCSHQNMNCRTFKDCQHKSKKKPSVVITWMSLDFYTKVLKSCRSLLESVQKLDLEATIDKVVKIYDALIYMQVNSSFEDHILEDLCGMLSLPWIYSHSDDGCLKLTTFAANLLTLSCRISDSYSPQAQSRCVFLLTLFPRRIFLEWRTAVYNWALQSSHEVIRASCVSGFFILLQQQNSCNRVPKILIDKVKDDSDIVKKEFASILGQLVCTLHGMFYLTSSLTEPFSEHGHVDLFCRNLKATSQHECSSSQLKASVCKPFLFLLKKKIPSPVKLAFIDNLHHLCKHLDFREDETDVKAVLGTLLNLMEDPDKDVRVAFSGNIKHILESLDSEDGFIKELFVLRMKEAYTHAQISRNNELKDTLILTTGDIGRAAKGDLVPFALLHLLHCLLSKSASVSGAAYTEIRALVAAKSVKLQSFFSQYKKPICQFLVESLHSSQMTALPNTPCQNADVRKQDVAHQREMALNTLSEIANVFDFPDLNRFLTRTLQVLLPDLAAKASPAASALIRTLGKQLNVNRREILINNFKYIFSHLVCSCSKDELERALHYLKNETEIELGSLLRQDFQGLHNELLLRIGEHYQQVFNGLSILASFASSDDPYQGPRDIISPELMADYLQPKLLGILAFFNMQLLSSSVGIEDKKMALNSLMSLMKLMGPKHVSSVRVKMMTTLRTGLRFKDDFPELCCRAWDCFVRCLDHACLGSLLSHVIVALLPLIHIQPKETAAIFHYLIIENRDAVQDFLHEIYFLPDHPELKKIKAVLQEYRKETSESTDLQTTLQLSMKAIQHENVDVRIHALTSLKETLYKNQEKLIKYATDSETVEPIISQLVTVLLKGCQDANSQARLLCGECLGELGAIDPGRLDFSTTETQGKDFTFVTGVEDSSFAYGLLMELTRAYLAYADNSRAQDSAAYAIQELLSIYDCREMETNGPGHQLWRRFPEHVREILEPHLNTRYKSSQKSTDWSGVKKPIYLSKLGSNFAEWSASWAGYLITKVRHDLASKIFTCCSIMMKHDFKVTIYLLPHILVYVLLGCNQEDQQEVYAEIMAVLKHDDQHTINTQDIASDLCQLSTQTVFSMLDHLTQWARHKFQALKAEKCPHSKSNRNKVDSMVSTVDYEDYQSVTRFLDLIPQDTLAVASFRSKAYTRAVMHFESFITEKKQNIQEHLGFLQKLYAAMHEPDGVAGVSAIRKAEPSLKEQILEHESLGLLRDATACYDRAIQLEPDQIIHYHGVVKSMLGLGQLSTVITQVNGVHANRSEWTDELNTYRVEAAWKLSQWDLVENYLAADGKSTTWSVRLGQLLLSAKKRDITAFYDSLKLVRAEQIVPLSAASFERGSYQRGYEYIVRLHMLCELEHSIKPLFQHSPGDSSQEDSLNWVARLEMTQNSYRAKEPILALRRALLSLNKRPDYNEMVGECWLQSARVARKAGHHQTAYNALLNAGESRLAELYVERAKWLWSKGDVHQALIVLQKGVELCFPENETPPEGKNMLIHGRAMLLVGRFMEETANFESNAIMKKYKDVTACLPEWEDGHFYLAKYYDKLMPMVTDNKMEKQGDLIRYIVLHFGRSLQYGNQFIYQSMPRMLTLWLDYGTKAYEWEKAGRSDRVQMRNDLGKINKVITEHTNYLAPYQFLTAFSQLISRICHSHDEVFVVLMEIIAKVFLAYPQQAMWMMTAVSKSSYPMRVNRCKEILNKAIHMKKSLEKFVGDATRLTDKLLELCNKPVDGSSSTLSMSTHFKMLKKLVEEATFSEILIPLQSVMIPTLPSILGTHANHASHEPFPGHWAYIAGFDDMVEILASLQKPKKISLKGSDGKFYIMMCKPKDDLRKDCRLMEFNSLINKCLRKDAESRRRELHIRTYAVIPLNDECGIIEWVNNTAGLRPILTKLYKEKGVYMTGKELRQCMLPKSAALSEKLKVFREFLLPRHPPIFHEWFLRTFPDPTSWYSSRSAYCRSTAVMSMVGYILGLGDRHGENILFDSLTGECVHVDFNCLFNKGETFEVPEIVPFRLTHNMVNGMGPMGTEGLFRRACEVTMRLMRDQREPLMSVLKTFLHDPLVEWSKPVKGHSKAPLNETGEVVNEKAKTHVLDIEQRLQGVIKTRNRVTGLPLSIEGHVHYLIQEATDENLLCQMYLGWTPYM
T2 sequence (Q8WXE1 whole entry partner): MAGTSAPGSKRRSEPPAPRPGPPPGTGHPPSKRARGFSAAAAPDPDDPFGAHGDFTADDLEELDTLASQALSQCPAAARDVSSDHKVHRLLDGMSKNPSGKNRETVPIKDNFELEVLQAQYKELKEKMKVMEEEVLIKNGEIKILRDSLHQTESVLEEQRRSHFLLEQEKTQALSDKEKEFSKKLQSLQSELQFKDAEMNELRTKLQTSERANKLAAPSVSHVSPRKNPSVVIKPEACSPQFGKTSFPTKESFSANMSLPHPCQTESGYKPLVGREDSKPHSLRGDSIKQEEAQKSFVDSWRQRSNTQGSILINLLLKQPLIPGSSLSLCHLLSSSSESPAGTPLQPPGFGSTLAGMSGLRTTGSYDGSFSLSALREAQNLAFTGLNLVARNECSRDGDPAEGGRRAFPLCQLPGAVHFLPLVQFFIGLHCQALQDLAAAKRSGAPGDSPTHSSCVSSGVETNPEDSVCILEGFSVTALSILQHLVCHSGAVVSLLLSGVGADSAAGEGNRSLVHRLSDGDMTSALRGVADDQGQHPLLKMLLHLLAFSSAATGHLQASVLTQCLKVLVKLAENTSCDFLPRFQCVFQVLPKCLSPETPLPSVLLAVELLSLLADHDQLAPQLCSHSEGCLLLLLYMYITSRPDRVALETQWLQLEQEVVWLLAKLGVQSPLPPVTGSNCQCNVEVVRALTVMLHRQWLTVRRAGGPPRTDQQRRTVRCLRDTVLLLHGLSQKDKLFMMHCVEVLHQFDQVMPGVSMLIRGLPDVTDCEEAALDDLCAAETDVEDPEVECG
Nature of the assay: Assay b): ATR cellular potency (pChk1 Ser345 in HT29 cells after 4NQO). As for the experimental part: ATR is a PI 3-kinase-related kinase which phosphorylates multiple substrates on serine or threonine residues in response to DNA damage during or replication blocks. Chk1, a downstream protein kinase of ATR, plays a key role in DNA damage checkpoint control. Activation of Chk1 involves phosphorylation of Ser317 and Ser345 (the latter regarded as the preferential target for phosphorylation/activation by ATR).
The following morning compound of Formula (I) in 100% DMSO were added to assay plates by acoustic dispensing. After 1 h incubation at 37° C. and 5% CO2, 40 nl of 3 mM 4NQO in 100% DMSO was added to all wells by acoustic dispensing, except minimum control wells which were left untreated with 4NQO to generate a null response control. Plates were returned to the incubator for a further 1 h. […] Then 20 μl of 0.1% Triton X100 in PBS was added and incubated for 10 minutes at r.t., to permeabalise cells. Then the plates were washed once with 50 μl/well PBS, using a Biotek EL405 plate washer.
After 2 h incubation at r.t., the plates were washed three times with 50 μl/well PBS, using a Biotek EL405 plate washer, and plates were then sealed with black plate seals until read. Plates were read using an ArrayScan VTI instrument, using an XF53 filter with 10× objective.

Another assay concerns the target T3, mTOR (Homo sapiens, UniProt P42345).
T3 construct: phosphorylation of the Akt protein at Ser473 (AKT lies downstream of PI3Kα in the signal transduction pathway) in the MDA-MB-468 cells; endogenous in cells; host or cells: MDA-MB-468 cells (ATCC HTB 132)
Nature of the assay: Assay d): mTOR cellular potency (phospho-AKT Ser473 in MDA-MB-468 cells). As for the experimental part:
This assay was used to measure mTOR inhibition in cells. The aim of the phospho-AKT cell based mechanism of action assay using the Acumen Explorer is to identify inhibitors of either PI3Kα or mTOR-Rictor (Rapamycin insensitive companion of mTOR). This is measured by any decrease in the phosphorylation of the Akt protein at Ser473 (AKT lies downstream of PI3Kα in the signal transduction pathway) in the MDA-MB-468 cells following treatment with compound.
MDA-MB-468 cells (human breast adenocarcinoma #ATCC HTB 132) were seeded at 1500 cells/well in 40 μl of DMEM containing 10% FBS and 1% glutamine into Greiner 384 well black flat-bottomed plates. Cell plates were incubated for 18 h in a 37° C. incubator before dosing with compounds of Formula (I) in 100% DMSO using acoustic dispensing. Compounds were dosed in a 12 point concentration range into a randomised plate map. Control wells were generated either by dosing of 100% DMSO (max signal) or addition of a reference compound (a PI3K-βinhibitor) that completely eliminated the pAKT signal (min control). Plates were incubated at 37° C. for 2 h; cells were then fixed by the addition of 10 μl of a 3.7% formaldehyde solution. After 30 minutes the plates were washed with PBS using a Tecan PW384 plate washer. Wells were blocked and cells permeabilised with the addition of 40 μl of PBS containing 0.5% Tween20 and 1% Marvel™ (dried milk powder) and incubated for 60 minutes at r.t. The plates were washed with PBS containing 0.5% (v/v) Tween20 and 20 μl rabbit anti-phospho AKT Ser473 (Cell Signalling Technologies, #3787) in same PBS-Tween+1% Marvel™ was added and incubated overnight at 4° C.
Plates were washed 3 times with PBS+0.05% Tween 20 using a Tecan PW384. 20 μl of secondary antibody Alexa Fluor 488 anti-Rabbit (Molecular Probes, #A11008) diluted in PBS+0.05% Tween20 containing 1% Marvel™ was added to each well and incubated for 1 h at r.t. Plates were washed three times as before then 20 μl PBS added to each well and plates sealed with a black plate sealer.
The plates were read on an Acumen plate reader as soon as possible, measuring green fluorescence after excitation with 488 nm laser. Using this system IC50 values were generated and quality of plates was determined by control wells. Reference compounds were run each time to monitor assay performance.

[1] abbreviates: HT29 cells, X-ray irradiation, pATM Ser1981; Table 2; read-out: Assay a) ATM Cell IC50.
Where [2] appears, read: HT29 cells, 4NQO, pChk1 Ser345; Table 2; read-out: Assay b) ATR Cell IC50.
The mark [3] stands for this setting: MDA-MB-468 cells, phospho-AKT Ser473, 2 h; Table 2; read-out: Assay d) mTOR Cell IC50.

Read-outs that look alike come from different tables or passages of the source.

On to `Cn1c(=O)n([C@H]2CCCOC2)c2c3cc(-c4ccc(OCCCN5CCCC5)cc4)ccc3ncc21` [Example 15, 3-methyl-8-[4-(3-pyrrolidin-1-ylpropoxy)phenyl]-1-[(3S)-tetrahydropyran-3-yl]imidazo[4,5-c]quinolin-2-one], for which the IC50 was 0.911 nM at ATM kinase (setting [1]), 21600 nM on ATR kinase (setting [2]) and 2580 nM at mTOR (setting [3]).
For the compound `Cn1c(=O)n(C2CCOCC2)c2c3cc(-c4cnn(CCCO)c4)ccc3ncc21` [CN102399218A Compound 60, reference compound], the IC50 on ATM kinase (HT29 cells, X-ray irradiation, pATM Ser1981; Table 3 comparative data; read-out: Assay a) ATM Cell IC50) was 1760 nM; on ATR kinase (HT29 cells, 4NQO, pChk1 Ser345; Table 3 comparative data; read-out: Assay b) ATR Cell IC50), > 77.1 nM; on mTOR (MDA-MB-468 cells, phospho-AKT Ser473, 2 h; Table 3 comparative data; read-out: Assay d) mTOR Cell IC50) it was 2310 nM.
As to `CC(C)n1c(=O)n(C)c2cnc3cc(F)c(-c4ccc(OCCCN5CCC5)cc4)cc3c21` [Example 4, 8-[4-[3-(azetidin-1-yl)propoxy]phenyl]-7-fluoro-1-isopropyl-3-methyl-imidazo[4,5-c]quinolin-2-one], the half-inhibitory concentration (IC50) is 6.64 nM on ATM kinase (setting [1]), > 30000 nM at ATR kinase (setting [2]) and 9120 nM at mTOR (setting [3]).
For `CO[C@@H]1CC[C@@H](n2c(=O)n(C)c3cnc4cc(F)c(-c5ccc(OCCCN6CCC6)cc5)cc4c32)C1` (single isomer, unassigned) [Example 24, 8-[4-[3-(azetidin-1-yl)propoxy]phenyl]-7-fluoro-1-[trans-3-methoxycyclopentyl]-3-methyl-imidazo[4,5-c]quinolin-2-one] the same measures were 0.917 nM, > 24600 nM and 5910 nM.
`CO[C@H]1C[C@@H](n2c(=O)n(C)c3cnc4ccc(-c5ccc(OCCN(C)C)cc5)cc4c32)C1` [Example 55, 8-[4-[2-(dimethylamino)ethoxy]phenyl]-1-(3-(cis)methoxycyclobutyl)-3-methyl-imidazo[4,5-c]quinolin-2-one]: the figures for the IC50 at ATM kinase (setting [1]), on ATR kinase (setting [2]) and on mTOR (setting [3]) were 11.3 nM, > 30000 nM and 4440 nM, respectively.
On the same counts, the results for `CN(C)CCCOc1ccc(-c2cc3c(cc2F)ncc2c3n(C3CCOCC3)c(=O)n2C)cc1` [Example 45, 8-[4-[3-(Dimethylamino)propoxy]phenyl]-7-fluoro-3-methyl-1-tetrahydropyran-4-yl-imidazo[4,5-c]quinolin-2-one] are 3.95 nM, 20000 nM and 8650 nM.
For `Cn1c(=O)n([C@H]2CCCOC2)c2c3cc(-c4ccc(OCCN5CCCC5)cc4)ccc3ncc21` [Example 51, 3-methyl-8-[4-(2-pyrrolidin-1-ylethoxy)phenyl]-1-[(3S)-tetrahydropyran-3-yl]imidazo[4,5-c]quinolin-2-one] the same measures were 10.2 nM, > 30000 nM and 1760 nM.
On the same counts, the results for `CO[C@@H]1CC[C@H](n2c(=O)n(C)c3cnc4cc(F)c(-c5ccc(OCCCN(C)C)cc5)cc4c32)C1` (single isomer, unassigned) [Example 37, 8-[4-[3-(dimethylamino)propoxy]phenyl]-7-fluoro-1-[cis-3-methoxycyclopentyl]-3-methyl-imidazo[4,5-c]quinolin-2-one] are 2.95 nM, > 30000 nM and 4110 nM.
Consider `CN(C)CCOc1ccc(-c2cc3c(cc2F)ncc2c3n(C3CCOCC3)c(=O)n2C)cc1` [Example 56, 8-[4-[2-(Dimethylamino)ethoxy]phenyl]-7-fluoro-3-methyl-1-tetrahydropyran-4-yl-imidazo[4,5-c]quinolin-2-one], for which the half-inhibitory concentration (IC50) on ATM kinase (setting [1]) was found to be 53.1 nM; on ATR kinase (setting [2]), 9850 nM; at mTOR (setting [3]), 29200 nM.
For the compound `CO[C@@H]1CC[C@@H](n2c(=O)n(C)c3cnc4ccc(-c5ccc(OCCCN6CCCC6)cc5)cc4c32)C1` (single isomer, unassigned) [Example 20, 1-[trans-3-methoxycyclopentyl]-3-methyl-8-[4-(3-pyrrolidin-1-ylpropoxy)phenyl]imidazo[4,5-c]quinolin-2-one], the results for the IC50 at ATM kinase (setting [1]), at ATR kinase (setting [2]) and at mTOR (setting [3]) were 0.452 nM, 21300 nM and 5500 nM, respectively.
For `CN(C)CCOc1ccc(-c2ccc3ncc4c(c3c2)n([C@@H]2CCCOC2)c(=O)n4C)cc1` [Example 48, 8-[4-[2-(dimethylamino)ethoxy]phenyl]-3-methyl-1-[(3R)-tetrahydropyran-3-yl]imidazo[4,5-c]quinolin-2-one] the same measures were 24.7 nM, > 26800 nM and 1780 nM.
`CO[C@@H]1CCC[C@H](n2c(=O)n(C)c3cnc4ccc(-c5ccc(OCCCN6CCCC6)cc5)cc4c32)C1` (relative stereo) [Example 39, 1-[cis-3-methoxycyclohexyl]-3-methyl-8-[4-(3-pyrrolidin-1-ylpropoxy)phenyl]imidazo[4,5-c]quinolin-2-one]: the IC50 on mTOR (setting [3]) is 899 nM.
On the same count and under the same terms, as for `CO[C@@H]1CC[C@H](n2c(=O)n(C)c3cnc4ccc(-c5ccc(OCCCN(C)C)cc5)cc4c32)C1` (single isomer, unassigned) [Example 34, 8-[4-[3-(dimethylamino)propoxy]phenyl]-1-[cis-3-methoxycyclopentyl]-3-methyl-imidazo[4,5-c]quinolin-2-one], the figure is 4660 nM.
Same read-out and setting: as for `CO[C@H]1CC[C@H](n2c(=O)n(C)c3cnc4ccc(-c5ccc(OCCCN(C)C)cc5)cc4c32)C1` [Example 6, 8-[4-[3-(Dimethylamino)propoxy]phenyl]-1-[(1S,3S)-3-methoxycyclopentyl]-3-methyl-imidazo[4,5-c]quinolin-2-one], the figure is 781 nM.
`Cn1c(=O)n(C2CCOCC2)c2c3cc(-c4ccc(OCCCN5CCCCC5)cc4)ccc3ncc21` [Example 18, 3-methyl-8-[4-[3-(1-piperidyl)propoxy]phenyl]-1-tetrahydropyran-4-yl-imidazo[4,5-c]quinolin-2-one]: the IC50 was > 17800 nM on ATR kinase (setting [2]) and 2650 nM on mTOR (setting [3]).

The IC50 is the concentration at which inhibition is half-maximal.
